{"source": "patent US8110543B2", "about": "“Anti-invasive and anti-angiogenic compositions” (Angstrom Pharmaceuticals, Inc., priority 1997, dated 2012)", "key": {"[1]": {"system": "matrix metalloproteinases MMP2 and MMP9", "experiment": "EnzCheck gelatinase assay (MMP activity)", "type": "biochemical", "details": "concentrations up to 100 μM; HT1080 supernatant activated with phenylmercuric acetate", "description": "HT1080 cells were grown in the presence of dexamethasone for 24 hrs and the supernatant collected and treated with phenylmercuric acetate to activate proMMPs."}, "3LL": {"system": "3LL", "experiment": "Matrigel invasion assay, 3LL cells", "type": "cell-based, mouse", "details": "all the cell lines tested", "description": "(§1) Several peptides were tested for anti-invasive capacity in a Matrigel® invasion assay system as indicated above (Kleinman et al., supra; Parish et al., supra). Several invasive human tumor lines (PC-3, MDA-MB-231) and non-human tumors (3LL, Mat B-III) were examined. The rat breast cancer line Mat B III and the human prostate cancer line PC-3 were initially used.\n(§2) Tumor cells (5×10^5/mL, in a volume of 200 μL) in serum-free RPMI 1640 medium were added to a disposable transwell invasion chamber coated with Matrigel® (Becton Dickinson, Lincoln Park, N.J.). The invasion chambers were placed in 24-well tissue culture plates filled with serum-free RPMI-1640 and the plates were placed in an atmosphere of 5% CO2 in humidified air at 37° C. for 48-72 hours. The chambers were then removed, inverted, and the cells which had invaded (and now appeared on the bottom face of the invasion chamber) were fixed and stained using Diff-Quick® (Scientific Products). Cells were counted in 10 different fields on each filter and an average obtained."}, "[2]": {"system": "rat breast cancer line Mat B III", "experiment": "Matrigel invasion assay, Mat B-III cells", "type": "cell-based", "details": "FIG. 1 (5 μM), FIG. 7, FIG. 8", "description": "as §1, §2"}, "PC-3 cells": {"system": "PC-3 cells", "experiment": "PC-3 CAT metastasis model", "type": "in vivo, mice", "details": "minipump 100 mg/kg/day, 14 or 21 days", "description": "The compounds of this invention are also tested for inhibition of late metastasis using an experimental metastasis model (Crowley et al., 1993). Late metastasis involves the steps of attachment and extravasation of tumor cells, local invasion, seeding, proliferation and angiogenesis.\nHuman prostatic carcinoma cells (PC-3) transfected with a reporter gene, preferably the green fluorescent protein (GFP) gene, but as an alternative with a gene encoding the enzymes chioramphenicol acetyl-transferase (CAT), luciferase or LacZ. This permits utilization of either of these markers (fluorescence detection of GFP or histochemical colorimetric detection of enzymatic activity) for following the fate of these cells. Cells are injected, preferably iv, and metastases identified after about 14 days, particularly in the lungs but also in regional lymph nodes, femurs and brain. This mimics the organ tropism of naturally occurring metastases of prostate cancer. For example, GFP-expressing PC-3 cells (1×10^6 cells per mouse) are injected iv into the tail veins of nude (nu/nu) mice. Animals are also implanted with mini-pumps (sub-dermally on the back) dispensing either the test compound (at least about 100 mg/kg/day) or vehicle. The animals are euthanized after 14 days and their organs prepared for histological examination. Single metastatic cells and foci are visualized and quantitated by fluorescence microscopy or light microscopic histochemistry or by grinding the tissue and quantitative colorimetric assay of the detectable label.\nIn addition to Å6, other related peptide compounds described above are tested for efficacy in vivo in the 3LL model (as provided above) as well as the PC-3 model. PC-3 cells transfected with the gene encoding the enzyme chloramphenicol acetyl-transferase (CAT) are inoculated into mice i.v. at doses of 1×10^6 cells per mouse. These mice are implanted with a minipump, as above, which dispenses 100 mg/kg/day of the peptide or vehicle over a period of 14 or 21 days. At termination of treatment, the animals are euthanized and the tumor marker probe is assayed in regional lymph nodes, femurs, lungs, and brain."}, "[3]": {"system": "PC-3 and Mat B III tumor cells"}, "[4]": {"system": "MDA-MB-231 human breast cancer cells", "experiment": "Matrigel invasion assay, MDA-MB-231 cells", "type": "cell-based", "details": "FIG. 7", "description": "as §1, §2"}, "U87": {"system": "U87", "experiment": "In vitro proliferation, U87 cells", "type": "cell-based, human", "description": "(§3) Å6 was also tested for its ability to inhibit the proliferation of cells other than endothelial cells in vitro.\nAnti-angiogenic therapy is expected to produce both anti-proliferative and pro-apoptotic effects that would “prime” the tumor chemotherapy with these alkylating agents. The proliferative index in the U87 tumors was evaluated using Ki-67 staining followed by digitization of the staining intensity and quantitation."}, "Acute toxicity in mice": {"experiment": "Acute toxicity in mice", "type": "in vivo", "details": "observed for 3 days", "description": "Acute toxicity was evaluated at three different doses of Å6 (1500 mg/kg, 500 mg/kg and 250 mg/kg). Mice (n=6) were infused (i.v,) with a bolus of Å6 over 5-10 minutes and observed for 3 days."}, "uPAR": {"target": "uPAR (Homo sapiens, UniProt Q03405)", "sequence (Q03405 23-305 limits assumed)": "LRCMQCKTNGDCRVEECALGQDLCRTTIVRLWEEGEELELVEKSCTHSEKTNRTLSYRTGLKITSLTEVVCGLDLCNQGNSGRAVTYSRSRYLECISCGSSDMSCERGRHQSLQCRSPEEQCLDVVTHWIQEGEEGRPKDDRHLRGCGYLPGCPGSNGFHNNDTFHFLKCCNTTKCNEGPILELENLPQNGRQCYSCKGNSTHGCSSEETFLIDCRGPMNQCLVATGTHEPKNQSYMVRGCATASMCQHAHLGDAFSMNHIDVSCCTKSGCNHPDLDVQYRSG", "experiment": "Binding of uPA to uPAR"}, "HepG2": {"system": "HepG2", "experiment": "In vitro proliferation, HepG2 cells", "type": "cell-based", "description": "as §3"}, "[5]": {"system": "MDA-MB-231 human breast cancer cells", "experiment": "MDA-MB-231 GFP xenograft model", "design": "species or system mice", "details": "mouse, in vivo"}, "MDA-MB-231": {"system": "MDA-MB-231", "experiment": "In vitro proliferation, MDA-MB-231 cells", "type": "cell-based, human", "description": "as §3"}}, "note": "Entries after “also recorded” stand apart in the source; their conditions may differ."}
{"substance": "Ac-KPSSPPEE-NH2 [Å6, CH3CO-Lys-Pro-Ser-Ser-Pro-Pro-Glu-Glu-NH2]", "values": [{"measurement": "inhibition of gelatinase activity", "setting": "[1]", "value": "did not inhibit"}, {"measurement": "invasion of 3LL cells through Matrigel", "setting": "3LL", "value": "inhibited"}, {"measurement": "invasion of Mat B-III cells through Matrigel", "setting": "[2]", "value": "optimal; also recorded: inhibits the invasion"}, {"measurement": "invasion of Mat B-III cells through Matrigel", "setting": "[2]; listed as Ac-KPSSPPEE-Am", "value": "inhibited the invasion"}, {"measurement": "metastasis, PC-3 model", "setting": "PC-3 cells", "value": "markedly inhibited"}, {"measurement": "cytotoxicity to the cells", "setting": "[3]", "value": "not cytotoxic"}, {"measurement": "inhibition of cell proliferation", "setting": "[3]; tumor cells of the invasion assay", "value": "nor did it inhibit cell proliferation"}, {"measurement": "invasion of MDA-MB-231 cells through Matrigel", "setting": "[4]", "value": "inhibits the invasion"}, {"measurement": "anti-proliferative effect, U87", "setting": "U87", "value": "No anti-proliferative effects; also recorded: did not inhibit"}, {"measurement": "potentiation of the anti-proliferative activity of CDDP against U87 cells", "setting": "U87", "value": "did not potentiate"}, {"measurement": "potentiation of the pro-apoptotic activity of CDDP", "setting": "U87", "value": "nor did it potentiate"}, {"measurement": "overt toxicity", "setting": "Acute toxicity in mice; 1500, 500 and 250 mg/kg i.v. bolus over 5-10 minutes", "value": "No evidence for overt toxicity"}, {"measurement": "survival after acute dosing", "setting": "Acute toxicity in mice; 1500, 500 and 250 mg/kg i.v. bolus", "value": "all the animals survived"}, {"measurement": "inhibition of binding of uPA to uPAR", "setting": "uPAR", "value": "no effect"}, {"measurement": "anti-proliferative effect, HepG2", "setting": "HepG2", "value": "No anti-proliferative effects"}, {"measurement": "efficacy on tumors staged to 50-100 mm^3 prior to initiating treatment", "setting": "[5]", "value": "ineffective"}, {"measurement": "anti-proliferative effect, MDA-MB-231", "setting": "MDA-MB-231", "value": "No anti-proliferative effects"}]}
